Several values for one entry are separate records, joined by “and”; a condition that tells them apart may be missing. Equal entries are not always repeated. Where two headings read alike, the source gives them in different places.
Experiments:
[1] = Phase I study, DDI study group: asciminib with or without imatinib at steady state under low-fat meal conditions (PK and safety); details: imatinib 400 mg qd steady state alone (Day 12)
[2] = In vitro flux study: dissolution and permeation of asciminib film-coated tablets through an artificial lipid membrane; assay type: in vitro ADME; details: 2×20 mg film-coated tablets; for flux rate (permeation through an artificial lipid membrane): 37° C.
Experimental: The donor compartment of a United States Pharmacopeia, Method II (USP II) dissolution apparatus (Distek corporation; New Jersey, United States) was filled with 900 mL maleate buffer containing either low concentrations of bile salts (imitating fasted conditions; Fasted State Simulated Intestinal Fluid [FaSSIF]; 3 mM taurocholate/taurodeoxycholate, 0.2 mM phospholipids/lysophospholipids, pH 5.8), high concentrations of bile salts (imitating fed intestinal conditions; Fed State Simulated Intestinal Fluid [FeSSIF]; 10 mM taurocholate/taurodeoxycholate, 2 mM phospholipids/lysophospholipids, 0.8/5.0 mM oleate/glycerol monoleate, pH 6.0), or no bile salts (control; pH 6.5). […] Two replicates per condition were performed.

[3] = Phase I study, FE study group: asciminib under fasted, low-fat meal and high-fat meal conditions (PK and safety); details: for asciminib AUCinf, Gmean / asciminib AUCinf, Median / asciminib AUCinf, adjusted Gmean / asciminib AUClast, Gmean / asciminib AUClast, Median / asciminib AUClast, adjusted Gmean / asciminib Cmax, Gmean / asciminib Cmax, Median / asciminib Cmax, Range / asciminib Cmax, adjusted Gmean / asciminib T1/2, Range / asciminib Tmax, Range / reduction in asciminib exposure (AUCinf; AUCinf and AUClast) compared with fasted conditions / asciminib Tmax, Median: single 40 mg;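 also: healthy volunteers, open-label single-center study, PK parameters from individual plasma concentration-time profiles by non-compartmental analysis, 7-day washout between treatment periods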
[4] = clinical; details: human, in vivo, 40 mg
[5] = single agent, patients with CML; cited from earlier work
[6] = initial asciminib tablet formulations, cited from earlier work
[7] = clinical; details: human, plasma, oral, 40 mg
[8] = control buffer, no bile salts (pH 6.5)
[9] = fasted state buffer (FaSSIF, pH 5.8)
[10] = fed state buffer (FeSSIF, pH 6.0)

With `Cc1ccc(NC(=O)c2ccc(CN3CCN(C)CC3)cc2)cc1Nc1nccc(-c2cccnc2)n1` [imatinib] the “imatinib AUC0-24h, Gmean” value [1] was 33,600 ng×h/mL and the “imatinib AUClast, Gmean” value [1] was 33,600 ng×h/mL.
In the case of `O=C(Nc1ccc(OC(F)(F)Cl)cc1)c1cnc(N2CC[C@@H](O)C2)c(-c2ccn[nH]2)c1` [asciminib, N-[4-(Chlorodifluoromethoxy)phenyl]-6-[(3R)-3-hydroxypyrrolidin-1-yl]-5-(1H-pyrazol-5-yl)pyridine-3-carboxamide], the dissolution [2, 8] is reported as 82.3%, the “flux rate (permeation through an artificial lipid membrane)” value (“flux rate” below) [2, 8] is reported as 2.66 µg/min and the dissolution [2, 9] is reported as 93.1%. For the same compound, the “flux rate” value [2, 9] was 1.45 µg/min, the dissolution [2, 10] was 94.2% and the “flux rate” value [2, 10] was 0.44 µg/min. The “participants with at least 1 AE” value ([3]; FE group, 11 of 24 participants) was 45.8%, the “participants with oropharyngeal pain and rhinitis (each)” value ([3]; FE group, each n=2) was 8.3% and the “asciminib AUCinf, Gmean” value ([3]; fasted, n=24) was 5830 ng·h/mL. The “asciminib AUCinf, Median” value ([3]; fasted, n=24) was 5890 ng·h/mL, the “asciminib AUCinf, adjusted Gmean” value ([3]; fasted, n=24) was 5830 ng·h/mL and the “asciminib AUClast, Gmean” value ([3]; fasted, n=24) was 5730 ng·h/mL. The “asciminib AUClast, Median” value ([3]; fasted, n=24) was 5820 ng·h/mL, the “asciminib AUClast, adjusted Gmean” value ([3]; fasted, n=24) was 5730 ng·h/mL and the “asciminib Cmax, Gmean” value ([3]; fasted, n=24) was 550 ng/mL. For the same compound, the “asciminib Cmax, Median” value ([3]; fasted, n=24) was 572 ng/mL, the “asciminib Cmax, Range” value ([3]; fasted, n=24) was 280 to 1050 ng/mL and the “asciminib Cmax, adjusted Gmean” value ([3]; fasted, n=24) was 550 ng/mL. For the same compound, the “asciminib T1/2, Range” value ([3]; fasted, n=24) was 9.18 to 19.1 h, the “asciminib Tmax, Range” value ([3]; fasted, n=24) was 1.00 to 5.00 h and the “reduction in asciminib exposure (AUCinf; AUCinf and AUClast) compared with fasted conditions” value ([3]; high-fat meal) was 62.3% and 62-63%. For the same compound, the “asciminib AUCinf, Gmean” value ([3]; high-fat meal, n=24) was 2200 ng·h/mL, the “asciminib AUCinf, Median” value ([3]; high-fat meal, n=24) was 2040 ng·h/mL and the “asciminib AUCinf, adjusted Gmean” value ([3]; high-fat meal, n=24) was 2200 ng·h/mL. For the same compound, the “asciminib AUClast, Gmean” value ([3]; high-fat meal, n=24) was 2130 ng·h/mL, the “asciminib AUClast, Median” value ([3]; high-fat meal, n=24) was 1960 ng·h/mL and the “asciminib AUClast, adjusted Gmean” value ([3]; high-fat meal, n=24) was 2130 ng·h/mL. For the same compound, the “asciminib Cmax, Gmean” value ([3]; high-fat meal, n=24) was 175 ng/mL, the “asciminib Cmax, Median” value ([3]; high-fat meal, n=24) was 159 ng/mL and the “asciminib Cmax, Range” value ([3]; high-fat meal, n=24) was 82.2 to 423 ng/mL. The “asciminib Cmax, adjusted Gmean” value ([3]; high-fat meal, n=24) was 175 ng/mL, the “asciminib T1/2, Range” value ([3]; high-fat meal, n=24) was 8.81 to 18.1 h and the “asciminib Tmax, Median” value ([3]; high-fat meal, n=24) was 4.01 h. The “asciminib Tmax, Range” value ([3]; high-fat meal, n=24) was 1.00 to 8.00 h, the “reduction in asciminib exposure (AUCinf; AUCinf and AUClast) compared with fasted conditions” value ([3]; low-fat meal) was 30% and the “asciminib AUCinf, Gmean” value ([3]; low-fat meal, n=23) was 4130 ng·h/mL. For the same compound, the “asciminib AUCinf, Median” value ([3]; low-fat meal, n=23) was 4300 ng·h/mL, the “asciminib AUCinf, adjusted Gmean” value ([3]; low-fat meal, n=23) was 4080 ng·h/mL and the “asciminib AUClast, Gmean” value ([3]; low-fat meal, n=23) was 4060 ng·h/mL. For the same compound, the “asciminib AUClast, Median” value ([3]; low-fat meal, n=23) was 4270 ng·h/mL, the “asciminib AUClast, adjusted Gmean” value ([3]; low-fat meal, n=23) was 4010 ng·h/mL and the “asciminib Cmax, Gmean” value ([3]; low-fat meal, n=23) was 363 ng/mL. The “asciminib Cmax, Median” value ([3]; low-fat meal, n=23) was 365 ng/mL, the “asciminib Cmax, Range” value ([3]; low-fat meal, n=23) was 172 to 709 ng/mL and the “asciminib Cmax, adjusted Gmean” value ([3]; low-fat meal, n=23) was 359 ng/mL. For the same compound, the “asciminib T1/2, Range” value ([3]; low-fat meal, n=23) was 9.70 to 17.7 h, the “asciminib Tmax, Median” value ([3]; low-fat meal, n=23) was 3.00 h and the “asciminib Tmax, Range” value ([3]; low-fat meal, n=23) was 0.997 to 5.00 h. The clearance [4] was 185 mL/min, the “maximum tolerated dose (not reached)” value [5] was > 200 mg twice daily and the “decreased asciminib exposure compared with the fasted state” value ([6]; high-fat meal) was ~65% and 63-64%. The “decreased asciminib exposure compared with the fasted state” value ([6]; low-fat meal) was ~30% and 30-31% and the half-life [7] was 13.5 h.

— patent US20240245666A1, “DOSING REGIMENS” (Novartis AG, priority 2021, published 2024)
